We go through six compounds from publication PMC10304880, “Novel Tryptanthrin Derivatives with Selectivity as c–Jun N–Terminal Kinase (JNK) 3 Inhibitors” (Molecules, 2023).

SMILES strings stand for the structures. Read-outs that look alike come from different tables or passages of the source.

Series [1] addresses T1, JNK1 (Homo sapiens, UniProt P45983).
T1 construct: purchased Eurofins Pharma Discovery (KINOMEscan service)
Put plainly: KINOMEscan JNK1 binding (Kd). Conditions: 12-point series, max 33 μM, duplicate. On the procedure:
(§1) All compounds were evaluated for their ability to bind to JNK1-3 using the KINOMEscan platform.
(§2) Compounds were submitted for dissociation constant (Kd) determination using KINOMEscan (Eurofins Pharma Discovery, San Diego, CA, USA), as described previously. […] Primary screening at fixed concentrations of compounds was performed in duplicate. To determine dissociation constant Kd, a 12-point half-log dilution series (a maximum concentration of 33 μM) was used.

In series [2] the target is T2, JNK2 (Homo sapiens, UniProt P45984).
T2 construct: purchased Eurofins Pharma Discovery (KINOMEscan service)
Put plainly: KINOMEscan JNK2 binding (Kd). Particulars: 12-point series, max 33 μM, duplicate. As for the experimental part: as §1, §2

Series [3] has as its target T3, JNK3 (Homo sapiens, UniProt P53779).
T3 construct: purchased Eurofins Pharma Discovery (KINOMEscan service)
Put plainly: KINOMEscan JNK3 binding (Kd). Particulars: for Kd: KINOMEscan, 12-point series, max 33 μM, duplicate; for Selectivity Index JNK1/JNK3 / Selectivity Index JNK2/JNK3: ratio of Kd values. On the procedure: as §1, §2

The test system of series [4] is NF-κB/AP-1 transcriptional activity in THP-1Blue cells. Put plainly: LPS-induced NF-κB/AP-1 alkaline phosphatase reporter assay in THP-1Blue cells. It is filed as cell-based. Conditions: Homo sapiens, 30 min pretreatment, 250 ng/mL LPS, 24 h; read-out: AP Production in THP–1Blue IC50. As for the experimental part:
Activation of AP-1/NF-κB was measured using an alkaline phosphatase reporter gene assay in THP1-Blue cells. Human monocytic THP-1Blue cells were stably transfected with a secreted embryonic alkaline phosphatase gene that was under the control of a promoter inducible by AP-1/NF-κB.
Figure 2 Effect of compounds 4d and 4e on NF-κB/AP-1 activity and IL-6 production. Panel (A) THP-1Blue cells were pretreated with the indicated compounds or DMSO for 30 min, followed by addition of 250 ng/mL LPS or buffer for 24 h. […] Panel (B) MonoMac-6 cells were pretreated with the indicated compounds or DMSO for 30 min, followed by addition of 250 ng/mL LPS or buffer for 24 h. Production of IL-6 in the supernatants was evaluated with ELISA. The data in each panel are presented as the mean ± S.D. of triplicate samples from one experiment that is representative of three independent experiments.
On the technique in general: In a reporter assay the amount or activity of a reporter protein is the signal.

Series [5] in a line: CellTiter-Glo cytotoxicity in THP-1Blue cells. It is filed as cell-based. Conditions: human, 24 h incubation. On the procedure: (§3) Prior to evaluation of the compounds in cell-based assays, we measured their cytotoxicity in human monocytic THP-1Blue and MonoMac-6 cells during a 24 h incubation. […] Thus, these compounds were all excluded from subsequent testing in these cell lines.
(§4) Cytotoxicity was analyzed with a CellTiter-Glo Luminescent Cell Viability Assay Kit from Promega (Madison, WI, USA), according to the manufacturer’s protocol. Cells were treated with the compound under investigation and cultivated for 24 h. After treatment, the cells were allowed to equilibrate to room temperature for 30 min, substrate was added, and the luminescence measured using a Fluoroscan Ascent FL (Thermo Fisher Scientific, Waltham, MA, USA). The cell IC50 values were calculated by plotting the percentage inhibition against the logarithm of inhibitor concentration (at least five points).

Series [6] deals with IL-6 production in MonoMac-6 cells. Put plainly: LPS-induced IL-6 production in MonoMac-6 cells (ELISA). It is filed as cell-based, human. Conditions: 250 ng/mL LPS, 24 h. On the procedure: All cells were cultured at 37 °C in a humidified atmosphere containing 5% CO2. Human THP-1Blue monocytic cells obtained from InvivoGen (San Diego, CA, USA) were cultured in RPMI 1640 medium (Mediatech Inc., Herndon, VA, USA) supplemented with 10% (v/v) fetal bovine serum (FBS), 4.5 g/L glucose, 100 μg/mL streptomycin, 100 U/mL penicillin, 100 μg/mL phleomycin (Zeocin), and 10 μg/mL blasticidin S. Human monocyte-macrophage MonoMac-6 cells (Deutsche Sammlung von Mikroorganismen und Zellkulturen GmbH, Braunschweig, Germany) were grown in RPMI 1640 medium supplemented with 10% (v/v) FBS, 10 μg/mL bovine insulin, 100 μg/mL streptomycin, and 100 U/mL penicillin.
Panel (A) THP-1Blue cells were pretreated with the indicated compounds or DMSO for 30 min, followed by addition of 250 ng/mL LPS or buffer for 24 h. […] Panel (B) MonoMac-6 cells were pretreated with the indicated compounds or DMSO for 30 min, followed by addition of 250 ng/mL LPS or buffer for 24 h. Production of IL-6 in the supernatants was evaluated with ELISA. The data in each panel are presented as the mean ± S.D. of triplicate samples from one experiment that is representative of three independent experiments.

Series [7] can be described thus: CellTiter-Glo cytotoxicity in MonoMac-6 cells. It is filed as cell-based. Conditions: human, 24 h incubation. On the procedure: as §3, §4
The test system of series [8] is c-Jun phosphorylation in MonoMac-6 cells. Put plainly: LPS-induced c-Jun (Ser63) phosphorylation in MonoMac-6 cells (sandwich ELISA). It is filed as cell-based, human. Particulars: 30 min pretreatment, LPS 500 ng/mL. As for the experimental part:
After 30 min pretreatment with the compounds, the cells were stimulated with LPS (500 ng/mL), and the level of phospho-c-Jun (S63) was determined by a sandwich ELISA.
MonoMac-6 cell lysates were prepared using Cell Lysis Buffer (Cell Signaling Technology, Danvers, MA, USA). The phospho-c-Jun content was measured with ELISA using the PathScan Phospho-c-Jun (Ser63) Sandwich ELISA Kit II (Cell Signaling Technology, USA), and the data are shown as the ratio of phospho-c-Jun vs. total c-Jun, which was measured using the FastScanTM Total c-Jun ELISA kit (Cell Signaling Technology).
Figure 3 Effect of the compounds 4d, 4e, 4h, and IQ-1S on LPS-induced c-Jun phosphorylation. Human MonoMac-6 monocytic cells were pretreated with the indicated concentrations of compounds or 0.5% DMSO for 30 min, followed by treatment with LPS (500 ng/mL) or control buffer for another 30 min. The cells were lysed, and the lysates were analyzed with ELISA for phospho-c-Jun (Ser63) and total c-Jun. The data are represented as the ratio of phospho-c-Jun to total c-Jun. The data are presented as the mean ± S.D. of triplicate samples from one experiment that is representative of three independent experiments. * Significant differences (p < 0.05) with LPS control.
In general terms: ELISA stands for enzyme-linked immunosorbent assay.

The target in series [9] is T1, JNK1. Conditions: Figure 1; ref [49],[50],[51]; cited from earlier work.
In series [10] the target is T2, JNK2. Conditions: Figure 1; ref [49],[50],[51]; cited from earlier work.
Series [11] concerns the target T3, JNK3. Conditions: cited from earlier work; for Kd: Figure 1, ref [49],[50],[51].

T1 sequence (P45983 whole entry): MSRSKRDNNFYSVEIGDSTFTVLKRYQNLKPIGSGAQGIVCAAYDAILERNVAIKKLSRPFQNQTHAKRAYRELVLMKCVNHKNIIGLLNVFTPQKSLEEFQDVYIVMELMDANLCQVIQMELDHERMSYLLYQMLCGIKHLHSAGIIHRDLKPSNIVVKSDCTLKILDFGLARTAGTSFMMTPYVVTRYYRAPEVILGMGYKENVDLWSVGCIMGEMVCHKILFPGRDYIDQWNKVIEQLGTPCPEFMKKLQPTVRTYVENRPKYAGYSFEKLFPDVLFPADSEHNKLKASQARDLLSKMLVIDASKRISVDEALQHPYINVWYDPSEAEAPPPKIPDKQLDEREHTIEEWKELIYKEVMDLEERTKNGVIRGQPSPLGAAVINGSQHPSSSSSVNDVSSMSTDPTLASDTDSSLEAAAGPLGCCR
T3 sequence (P53779 whole entry): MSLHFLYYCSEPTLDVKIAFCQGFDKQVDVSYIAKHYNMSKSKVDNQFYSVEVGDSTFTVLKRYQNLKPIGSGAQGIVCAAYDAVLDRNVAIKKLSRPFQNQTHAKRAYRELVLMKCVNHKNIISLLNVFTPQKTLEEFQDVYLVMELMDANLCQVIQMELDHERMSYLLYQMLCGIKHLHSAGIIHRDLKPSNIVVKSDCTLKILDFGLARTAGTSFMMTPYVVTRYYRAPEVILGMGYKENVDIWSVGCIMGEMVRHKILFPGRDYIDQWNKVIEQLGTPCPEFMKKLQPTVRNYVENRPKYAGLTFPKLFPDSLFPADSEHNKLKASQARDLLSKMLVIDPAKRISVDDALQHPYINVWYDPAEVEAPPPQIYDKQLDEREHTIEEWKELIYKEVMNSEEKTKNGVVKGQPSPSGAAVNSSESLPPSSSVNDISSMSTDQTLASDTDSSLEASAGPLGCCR
T2 sequence (P45984 whole entry): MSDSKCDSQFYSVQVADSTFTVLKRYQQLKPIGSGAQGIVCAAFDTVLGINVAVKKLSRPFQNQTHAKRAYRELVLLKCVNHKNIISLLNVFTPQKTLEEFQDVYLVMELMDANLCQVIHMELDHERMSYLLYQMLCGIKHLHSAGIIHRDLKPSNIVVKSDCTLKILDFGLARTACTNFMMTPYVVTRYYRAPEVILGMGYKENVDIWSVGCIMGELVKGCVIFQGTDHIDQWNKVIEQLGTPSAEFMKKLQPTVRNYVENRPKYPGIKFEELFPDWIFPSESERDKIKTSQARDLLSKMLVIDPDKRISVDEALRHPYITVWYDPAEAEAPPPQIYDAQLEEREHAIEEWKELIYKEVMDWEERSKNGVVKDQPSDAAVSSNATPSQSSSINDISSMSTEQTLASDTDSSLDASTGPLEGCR

Regarding `COc1ccc2c(c1)C(=NO)c1nc3ccccc3c(=O)n1-2` [Compound 4d, 8-Methoxyindolo[2,1-b]quinazolin-6,12-dione Oxime], the melting point (usually the temperature of the solid-liquid transition) was > 225 °C (dec.). The dissociation constant (Kd) (as a rule, the concentration at which binding is half-saturated) on JNK1 [1] was over 30 µM. Moreover, the Kd on JNK2 [2] is over 30 µM. Further, on JNK3 [3], the “selectivity index (JNK3 versus JNK1 and JNK2)” value is over 7; the Kd was 0.34 ± 0.03 µM; the “Selectivity Index JNK1/JNK3” value is on record as over 100; the “Selectivity Index JNK2/JNK3” value is over 100. In addition, in series [4], the IC50 (as a rule, the concentration at which inhibition is half-maximal) was found to be 0.8 ± 0.3 µM. The same compound registered an IC50 at 24 h in series [5] of over 50 µM. In addition, the IC50 in [6] (30 min pretreatment) is 0.7 ± 0.1 µM. In [6] (Homo sapiens, MONO-MAC-6, 30 min pretreatment), the half-inhibitory concentration (IC50) was under 1 µM. In series [7], this compound showed an IC50 at 24 h of over 50 µM. Moreover, in series [8], the “LPS-induced c-Jun phosphorylation (phospho-c-Jun S63 / total c-Jun)” value was “dose-dependently inhibited”.

On to `N#CCO/N=C1\c2ccccc2-n2c1nc1ccccc1c2=O` [TRYP–1e], for which the Kd was 19.5 µM at JNK1 [9], 17.5 µM on JNK2 [10] and 1.5 µM at JNK3 [11]. Moreover, on JNK3 [11] (ref [49]), the “selectivity for JNK3 binding versus JNK1/JNK2” value is reported as ~ 10 fold.

`O=c1c2ccccc2nc2n1-c1ccc(-c3ccccc3)cc1C2=NO` [Compound 4e, 8-Phenylindolo[2,1-b]quinazolin-6,12-dione Oxime]: the melting point was > 225 °C (dec.). On JNK1 [1], the equilibrium dissociation constant (Kd) is over 30 µM. Moreover, the dissociation constant (Kd) at JNK2 [2] is over 30 µM. In addition, at JNK3 [3], the “selectivity index (JNK3 versus JNK1 and JNK2)” value was over 7; the Kd is 0.34 ± 0.04 µM; the “Selectivity Index JNK1/JNK3” value is listed as over 100; the “Selectivity Index JNK2/JNK3” value is on record as over 100. For the same compound, in [4], the half-inhibitory concentration (IC50) is 1.6 ± 0.1 µM. In addition, in [5], the IC50 at 24 h was over 50 µM. Besides, in series [7], the IC50 at 24 h is over 50 µM. For the same compound, in series [8], the “LPS-induced c-Jun phosphorylation (phospho-c-Jun S63 / total c-Jun)” value is listed as “dose-dependently inhibited”.

With `Cc1ccc2c(c1)-n1c(nc3ccccc3c1=O)C2=NO` [Compound 4h, 9-Methylindolo[2,1-b]quinazolin-6,12-dione Oxime], the melting point is > 225 °C (dec.). Besides, the Kd on JNK1 [1] worked out at 0.67 ± 0.35 µM. At JNK2 [2], the equilibrium dissociation constant (Kd) is 0.57 ± 0.12 µM. For the same compound, at JNK3 [3], the dissociation constant Kd came out at 0.23 ± 0.04 µM, the “Selectivity Index JNK1/JNK3” value amounted to 2.9 and the “Selectivity Index JNK2/JNK3” value was 2.5. In series [5], this compound gave a 50% inhibitory concentration (IC50) at 24 h of over 50 µM. For the same compound, the 50% inhibitory concentration (IC50) at 24 h in series [7] is over 50 µM. Also, in [8], the “LPS-induced c-Jun phosphorylation (phospho-c-Jun S63 / total c-Jun)” value was “dose-dependently inhibited”.

With `O/N=C1\c2ccccc2-c2nc3ccc(Cl)cc3nc21` [IQ–6i], the equilibrium dissociation constant (Kd) at JNK1 [9] is 1.1 µM; on JNK2 [10], 21.5 µM; on JNK3 [11] it was 0.71 µM.

Take `O/N=C1\c2ccccc2-c2nc3cc(F)c(F)cc3nc21` [IQ–4f]: the Kd at JNK1 [9] was 0.17 µM; on JNK2 [10], over 30 µM; at JNK3 [11], 0.52 µM.
